Reference: the supplement of paper PMC10307832

Columns and labels:
Assay in all cases: relative viability (nuclei count vs DMSO), 5 days (fraction); higher = more cells survive
BMX-IN-1 + Crizotinib = compound: C=CC(=O)Nc1cc(-n2c(=O)ccc3cnc4ccc(-c5ccc(NS(C)(=O)=O)cc5)cc4c32)ccc1C [BMX-IN-1] + C[C@@H](Oc1cc(-c2cnn(C3CCNCC3)c2)cnc1N)c1c(Cl)ccc(F)c1Cl [Crizotinib] (partner 1 µM)
Procedure, shortened: (§1)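 Lung cancer cell lines were pin-tool dosed in 1536-well plates on the day after seeding, with either a lone drug or a fixed anchor-drug dose plus five library-drug doses (not always all listed) in √10 steps. Nuclei were counted on 4× images after 5 days. Relative viability is the ratio of treated-well to vehicle-well nuclei counts, with each value a median of duplicate plates.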

PAC-1 + Dasatinib = compound: C=CCc1cccc(/C=N/NC(=O)CN2CCN(Cc3ccccc3)CC2)c1O [PAC-1] + Cc1nc(Nc2ncc(C(=O)Nc3c(C)cccc3Cl)s2)cc(N2CCN(CCO)CC2)n1 [Dasatinib] (partner 0.075 µM)
Procedure, shortened: as §1

BMX-IN-1 + Lapatinib = compound: C=CC(=O)Nc1cc(-n2c(=O)ccc3cnc4ccc(-c5ccc(NS(C)(=O)=O)cc5)cc4c32)ccc1C [BMX-IN-1] + CS(=O)(=O)CCNCc1ccc(-c2ccc3ncnc(Nc4ccc(OCc5cccc(F)c5)c(Cl)c4)c3c2)o1 [Lapatinib] (partner 2 µM)
Procedure, shortened: as §1

Cell Line	relative viability (BMX-IN-1 + Crizotinib; first compound 0.02 µM)	relative viability (BMX-IN-1 + Crizotinib; first compound 0.2 µM)	relative viability (BMX-IN-1 + Crizotinib; first compound 0.6325 µM)	relative viability (BMX-IN-1 + Crizotinib; first compound 2 µM)	relative viability (PAC-1 + Dasatinib; first compound 0.02 µM)	relative viability (PAC-1 + Dasatinib; first compound 0.06325 µM)	relative viability (PAC-1 + Dasatinib; first compound 0.2 µM)	relative viability (PAC-1 + Dasatinib; first compound 2 µM)	relative viability (BMX-IN-1 + Lapatinib; first compound 0.02 µM)	relative viability (BMX-IN-1 + Lapatinib; first compound 0.2 µM)	relative viability (BMX-IN-1 + Lapatinib; first compound 0.6325 µM)	relative viability (BMX-IN-1 + Lapatinib; first compound 2 µM)
NCI-H838	1.14	0.983	0.834	0.877	0.247	0.278	0.243	0.311	1.3	1.16	1.2	1.04
ABC-1	1.22	1.27	0.69	0.904	0.501	0.495	0.541	0.484	1.46	1.23	1.16	1.28
NCI-H441	0.861	0.936	0.884	0.787	0.593	0.628	0.438	0.573	–	–	–	–
NCI-H2126	1.2	1.06	1.15	1.1	0.615	0.584	0.642	0.615	0.899	0.768	0.827	0.784
NCI-H1651	0.976	1.01	0.907	0.862	0.391	0.446	0.394	0.393	1	0.967	1.17	0.834
NCI-H1734	0.797	0.807	0.794	0.703	0.361	0.521	0.397	0.51	1.21	1.66	1.1	1.05
NCI-H1915	1.28	0.964	0.946	0.977	0.313	0.336	0.317	0.29	1.16	1.05	1.13	0.968
NCI-H2023	0.865	0.639	0.753	0.676	0.553	0.615	0.42	0.55	1.19	0.954	1.19	0.855
NCI-H1755	1.01	1.07	0.958	0.843	0.426	0.446	0.384	0.443	1.2	1.02	1.09	1.02
EPLC-272H	1.04	0.968	0.96	0.96	0.447	0.365	0.387	0.268	1.03	0.929	1.14	1.08
NCI-H1793	–	–	–	–	0.373	0.373	0.364	0.412	0.755	1.22	0.72	0.872
NCI-H358	0.498	0.611	0.538	0.512	0.179	0.164	0.158	0.135	0.48	0.431	0.4	0.412
HCC-827	0.972	0.939	0.939	0.97	0.277	0.325	0.297	0.293	0.189	0.203	0.193	0.206
NCI-H2085	0.98	0.815	0.897	0.855	0.225	0.234	0.285	0.213	0.831	0.821	0.764	0.763
LCLC-97TM1	0.343	0.429	0.363	0.387	0.692	0.848	0.748	0.911	0.862	1.24	1.41	0.816
EKVX	1.18	1.29	0.882	1.01	0.587	0.606	0.569	0.515	0.208	0.197	0.216	0.189
PC-14	0.909	1.07	0.964	0.987	0.248	0.265	0.279	0.249	0.356	0.321	0.338	0.258
NCI-H1355	1.27	1.17	1.08	1.13	0.75	0.722	0.667	0.711	1.14	1.09	1.08	0.982
NCI-H1792	0.886	1.7	0.855	0.977	0.996	0.77	0.763	0.755	0.834	1.04	0.937	0.922
NCI-H2009	1.11	1.07	1.26	1.06	0.267	0.305	0.291	0.334	0.661	1.04	1.1	0.893
HARA	1.39	1.24	1.16	1.09	0.336	0.251	0.26	0.26	0.997	0.842	1.01	0.69
H3255	0.969	1.11	0.968	0.924	0.361	0.288	0.284	0.33	0.207	0.206	0.207	0.222
SW 1573	0.869	0.97	0.879	0.767	0.537	0.561	0.44	0.52	1.31	1.29	1.24	0.701
SW 900	–	–	–	–	0.766	0.467	0.435	0.927	–	–	–	–
NCI-H1299	0.798	1.03	0.97	1.01	–	–	–	–	1	0.986	1.06	0.962
EBC-1	0.195	0.202	0.162	0.197	–	–	–	–	0.243	0.181	0.206	0.168
NCI-H1666	1.08	0.98	1.05	0.906	0.834	0.845	0.793	0.836	0.772	0.626	0.663	0.444
IA-LM	0.875	0.865	0.99	0.772	–	–	–	–	0.925	0.902	0.994	0.867
NCI-H1395	–	–	–	–	0.403	0.476	0.387	0.422	1.03	0.996	1.12	0.951
A549	0.986	1.22	0.945	0.738	–	–	–	–	1.04	1.47	1.17	1.02
